In PubChem BioAssay (NCI):
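These data come from cells grown in 96-well plates and exposed to compound for 48 hours at five concentrations. Here, GI50 denotes the concentration required for 50% inhibition of growth. The concentration for full growth arrest is given as TGI.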

Columns and labels:
Experiment in all cases: NCI anticancer screen, dose series, 48 h
[1] = test system: SR leukemia
[2] = test system: 786-0 renal
[3] = test system: IGROV1 ovarian
[4] = test system: MALME-3M melanoma
[5] = test system: SK-MEL-28 melanoma
[6] = test system: UO-31 renal
[7] = test system: HT29 colon
[8] = test system: UACC-257 melanoma
[9] = test system: MDA-MB-435
[10] = test system: HCT-116 colon

| Compound | GI50 [1] [µM] | TGI [1] [µM] | GI50 [2] [µM] | TGI [2] [µM] | GI50 [3] [µM] | TGI [3] [µM] | GI50 [4] [µM] | TGI [4] [µM] | GI50 [5] [µM] | TGI [5] [µM] | GI50 [6] [µM] | TGI [6] [µM] | GI50 [7] [µM] | TGI [7] [µM] | GI50 [8] [µM] | TGI [8] [µM] | GI50 [9] [µM] | TGI [9] [µM] | GI50 [10] [µM] | TGI [10] [µM] |
| --- | --- | --- | --- | --- | --- | --- | --- | --- | --- | --- | --- | --- | --- | --- | --- | --- | --- | --- | --- | --- |
| O=C1c2c(F)c(F)c(F)c(F)c2C(=O)N1c1ccc(F)cc1F | 0.144 | 1.2 | 11 | > 43.8 | 6.54 | 19.3 | 13.4 | 33.9 | 13.4 | > 72.4 | 10.5 | > 48 | 7.36 | > 100 | 21.8 | 57.2 | 13.9 | 38.3 | 3.71 | 14.2 |
| COC(=O)[C@]12CC[C@@H](C)[C@H](C)[C@@H]1C1=CC[C@@H]3[C@@]4(C)C[C@@H](O)[C@H](O)[C@@](C)(CO)[C@@H]4[C@H](O)C[C@@]3(C)[C@]1(C)CC2 | 11.9 | 40.8 | 11.5 | 31.6 | 12.4 | 29.4 | 13 | 32 | 11.8 | 30.3 | 6.3 | 29.8 | 17.1 | 36.3 | 16.8 | 35.8 | 13 | 27.3 | 11.1 | 26.4 |
| C/C=C/[C@@H]1O[C@@H]2COC(=O)C2=C[C@@H]1O | 9.61 | > 100 | 6.79 | 21.1 | 18.6 | > 84 | 1.96 | 6.85 | 15.3 | 32.9 | 4.21 | > 51.6 | 5.73 | 46 | 21 | 36.9 | 18.8 | 37.3 | 2.06 | 8.79 |
| O=C1CSC(=S)N1/N=C/c1ccc(Cl)c([N+](=O)[O-])c1 |  | > 100 |  | > 100 |  | > 100 |  | 40.4 |  | 62.1 |  | 71 |  | > 100 |  | 62.8 |  | 54.3 |  | 48.2 |
| O=C1OCC2=C1C(c1cccc(Br)c1)c1cc3c(cc1N2CCO)OCCO3 (centres undefined) | 0.127 | 31 | 0.0695 | 3.66 | 0.117 | > 43.8 | 0.0288 | 20.8 | 0.0884 | > 50 | 0.127 | 36.5 | 0.0507 | 0.233 | 0.0261 | 15.3 |  | 0.0241 | 0.0595 | 2.07 |
| c1ccc(-c2n(Cc3ccc4ccccc4n3)cc[n+]2Cc2ccc3ccccc3c2)cc1 | 0.573 | 3.11 | 2.24 | 6.12 | 0.783 | 2.43 | 0.81 | 2.78 | 0.936 | 2.84 | 2.93 | 13.2 | 0.979 | 4.59 | 0.557 | 3.03 | 0.799 | 2.5 | 1.24 | 3.37 |
| CCCCCCCCCCSC(=N)N (tested in a mixture with another compound) | 2.34 | 6.9 | 1.91 | 4.54 | 5.2 | 18.9 | 2.24 | 5.07 | 2.65 | 8.15 | 3.02 | 13 | 1.78 | 4.34 | 2.46 | 5.93 | 1.7 | 3.27 | 2.6 | 9.55 |
| CCOc1ccc(NC2=CC(=O)C(=O)c3ccccc32)cc1 |  | 17.6 |  | 13.7 |  | 16.9 |  | 3.56 |  | 7.22 |  | 13.5 |  | 15.8 |  | 3.04 |  | 3.19 |  | 10.1 |
| O=C(Nc1nn2c(-c3cc(C(F)(F)F)cc(C(F)(F)F)c3)nnc2s1)C1CCCC1 | 0.942 | 6.21 | 0.663 | > 32.8 | 0.553 | > 100 | 0.27 | 2.93 | 0.734 | > 100 | 0.402 | 5.57 | 1.11 | > 32.5 | 0.419 | 3.49 | 0.424 | > 39.8 | 0.518 | > 100 |
| CN1CCN(C(=O)COc2ccc(C34CC5CC(CC(C5)C3)C4)cc2)CC1 | 4.62 | 97.4 | 11.3 | 23.5 | 15 | 39.2 | 7.64 | 22.3 | 12.7 | 26.2 | 12.4 | 25 | 4.66 | 19.1 | 12.8 | 31.9 | 14.6 | 28.8 | 13.9 | 26.9 |
| COC(=O)/C=C/c1cc(OC(C)=O)c2c(c1)[C@@H](C(=O)OC)[C@H](c1ccc(OC(C)=O)c(OC(C)=O)c1)O2 | 0.0281 | > 49.6 | 0.0958 | > 100 | 0.176 | 38.3 | 0.0512 | 48.7 | 0.852 | 80.8 | 0.131 | 38 | 1.68 | > 58.7 | 1.45 | 56.2 | 0.0166 | 0.0466 | 0.0485 | > 59.9 |
| c1ccc(Nc2ncc(-c3ccccc3)o2)cc1 | > 20.6 | > 25 | > 25 | > 25 | > 22 | > 25 | > 25 | > 25 | > 25 | > 25 | 9.95 | > 25 | > 25 | > 25 | > 25 | > 25 | > 25 | > 25 | 24.5 | > 25 |
| CC[C@@H](c1ccc(O)c(O)c1)[C@@H](CC)c1ccc(O)c(O)c1 | 4.17 | > 100 | 20.4 | 38.2 | 9.57 | 85.5 | 3.91 | 19.8 | 19.1 | 44.6 | 4.12 | 21.4 | 11.9 | 58.2 | 14.9 | 38.1 | 3.47 | 15.1 | 4.23 | 14.4 |
| COc1ccccc1NC(=O)c1cc2cc(Br)ccc2cc1O | 0.809 | 9.14 | 3.52 | 11.2 | 1.6 | 6.56 | 1.39 | 4.87 | 4.46 | 14.4 | 1.57 | 7.85 | 7.73 | 21.5 | 1.97 | 5.3 | 2.35 | 8.58 | 2.8 | 10.3 |
| CC1(C)[C@@H](NOCCCN)CC[C@]2(C)[C@H]3C(=O)C=C4[C@@H]5C[C@](C)(C(=O)O)CC[C@]5(C)CC[C@@]4(C)[C@]3(C)CC[C@@H]12 | 2.27 | 6.89 | 6.23 | 19.2 | 12.2 | 24.6 | 4.56 | 16.9 | 4.08 | 13.6 | 7.44 | 20.4 | 3.45 | 16.1 | 6.81 | 32.3 | 6.08 | 23.6 | 2.95 | 11.5 |
| O=C(Nc1cccc(C(F)(F)F)c1)Nc1cccc(C(F)(F)F)c1 | 1.77 | 7.56 | 1.56 | 4.14 | 0.868 | 10.3 | 1.36 | 3.92 | 1.86 | 10.5 | 0.649 | 4.21 | 0.84 | 6.06 | 1.31 | 4.95 | 1.44 | 5.51 | 0.462 | 2.76 |
| Br[Se]c1ccccn1 |  | 65.8 |  | 32.6 |  | 31.5 |  | 31.2 |  | 37.5 |  | 31.2 |  | 53.9 |  | 31.7 |  | 31.8 |  | 33 |
| COc1c2ccccc2c(OC)c2[nH]c(=O)ccc12 | 6.61 | > 100 | 56.1 | > 100 | 5.73 | > 100 | 0.578 | 1.78 | 2.37 | 5.1 | 8.13 | 97.3 | 4.66 | > 57 | 2.5 | 6.39 | 1.98 | 4.07 | 4.98 | > 100 |
| COCCn1cc(-c2nc(-c3cc4cccnc4[nH]3)cs2)c2cc(OC)ccc21 | 1.21 | > 29.7 | 3.04 | 20.9 | 0.81 | > 34.5 | 7.99 | > 80.6 | 5.21 | > 100 | 1.84 | 11 | 3.71 | > 81.2 | 4.26 | 9.81 | 5.27 | > 100 | 3.49 | 16 |
